ChEMBL document CHEMBL1140954, “Syntheses and cytotoxicities of the analogues of the taxoid brevifoliol” (Eur J Med Chem, 2008)
Values after ≈ are worked out from the molar mass of the structure shown.

Tests used:
[1] = system: HepG2; assay: Cytotoxicity against human HepG2 cells after 48 hrs by MTT assay; assay type: functional, cell-based; details: HepG2, 48 h
[2] = (§1) Cytotoxicity against human Caco-2 cells after 48 hrs by MTT assay; assay type: cell-based; details: human, Caco-2 cells
[3] = system: Caco-2; assay: as §1; assay type: cell-based; details: Homo sapiens, Caco-2, 48 h
[4] = system: KB; assay: Cytotoxicity against human KB cells after 48 hrs by MTT assay; assay type: functional, cell-based
[5] = system: MCF7; assay: Cytotoxicity against human MCF7 cells after 48 hrs by MTT assay; assay type: functional, cell-based; details: MCF7, 48 h

Compound	IC50 [1] [µg/mL]	IC90 [1] [µg/mL]	IC90 at 48 h [2] [µg/mL]	IC50 [3] [µg/mL]	IC50 [4] [µg/mL]	IC90 [4] [µg/mL]	IC50 [5] [µg/mL]	IC90 [5] [µg/mL]
C=C1[C@@H](OC(=O)[C@H](O)[C@@H](NC(=O)OC(C)(C)C)c2ccccc2)C[C@H](OC(C)=O)[C@]2(C)[C@@H]1C[C@]1(C(C)(C)O)CC(=O)C(C)=C1[C@@H](OC(=O)c1ccccc1)[C@@H]2OC(C)=O	0.065 (≈ 0.0795 µM)	5.33 (≈ 6.52 µM)	100 (≈ 122 µM)	100 (≈ 122 µM)	100 (≈ 122 µM)	100 (≈ 122 µM)	8.5 (≈ 10.4 µM)	43.3 (≈ 53 µM)
C=C1[C@H]2C[C@]3(C(C)(C)O)C[C@H](OC(=O)[C@H](O)[C@@H](NC(=O)OC(C)(C)C)c4ccccc4)C(C)=C3[C@@H](OC(=O)c3ccccc3)[C@H](OC(C)=O)[C@]2(C)[C@@H](OC(C)=O)C[C@@H]1O	78.3 (≈ 95.5 µM)	91.6 (≈ 112 µM)	100 (≈ 122 µM)	100 (≈ 122 µM)	100 (≈ 122 µM)	100 (≈ 122 µM)	48.3 (≈ 58.9 µM)	68.3 (≈ 83.3 µM)
C=C1[C@@H](OC(=O)[C@H](O)[C@@H](NC(=O)OC(C)(C)C)c2ccccc2)C[C@H](OC(C)=O)[C@]2(C)[C@@H]1C[C@]1(C(C)(C)O)C[C@H](OC(=O)C(O)C(NC(=O)OC(C)(C)C)c3ccccc3)C(C)=C1[C@@H](OC(=O)c1ccccc1)[C@@H]2OC(C)=O (stereo partly specified)	96.6 (≈ 89.2 µM)	100 (≈ 92.3 µM)	100 (≈ 92.3 µM)	100 (≈ 92.3 µM)	2.73 (≈ 2.52 µM)	33.3 (≈ 30.7 µM)	100 (≈ 92.3 µM)	100 (≈ 92.3 µM)
C=C1[C@@H](OC(=O)[C@H](O)[C@@H](NC(=O)OC(C)(C)C)c2ccccc2)C[C@H](OC(C)=O)[C@@]2(C)[C@@H](OC(C)=O)[C@H](OC(=O)c3ccccc3)C3=C(C)C(=O)C[C@@]3(C(C)(C)O)[C@@H](OC(C)=O)[C@H]12	100 (≈ 114 µM)	100 (≈ 114 µM)	100 (≈ 114 µM)	100 (≈ 114 µM)	0.105 (≈ 0.12 µM)	5.33 (≈ 6.08 µM)	100 (≈ 114 µM)	100 (≈ 114 µM)
C=C1[C@H]2C[C@]3(C(C)(C)O)C[C@H](O)C(C)=C3[C@@H](OC(=O)c3ccccc3)[C@H](OC(C)=O)[C@]2(C)[C@@H](OC(C)=O)C[C@@H]1O [BREVIFOLIOL]	0.055 (≈ 0.0988 µM)	1.13 (≈ 2.03 µM)	1.32 (≈ 2.37 µM)	0.0025 (≈ 0.00449 µM)	0.0031 (≈ 0.00557 µM)	0.6 (≈ 1.08 µM)	0.86 (≈ 1.54 µM)	6.16 (≈ 11.1 µM)
C=C1[C@@H](OC(=O)[C@H](O)[C@@H](NC(=O)OC(C)(C)C)c2ccccc2)C[C@H](OC(C)=O)[C@]2(C)[C@@H]1C[C@]1(C(C)(C)O)C[C@H](O)C(C)=C1[C@@H](OC(=O)c1ccccc1)[C@@H]2OC(C)=O	100 (≈ 122 µM)	100 (≈ 122 µM)	100 (≈ 122 µM)	100 (≈ 122 µM)	100 (≈ 122 µM)	100 (≈ 122 µM)	33.3 (≈ 40.6 µM)	55 (≈ 67.1 µM)
C=C1[C@@H](O)C[C@H](OC(C)=O)[C@@]2(C)[C@@H](OC(C)=O)[C@H](OC(=O)c3ccccc3)C3=C(C)[C@@H](O)C[C@@]3(C(C)(C)O)[C@@H](OC(C)=O)[C@H]12 [TAXCHININ A]	96.6 (≈ 157 µM)	100 (≈ 163 µM)	21 (≈ 34.2 µM)	6.16 (≈ 10 µM)	0.316 (≈ 0.514 µM)	7.5 (≈ 12.2 µM)	58.3 (≈ 94.8 µM)	91.6 (≈ 149 µM)
CC(=O)O[C@H]1C(=O)[C@@]2(C)[C@H]([C@H](OC(=O)c3ccccc3)[C@]3(O)C[C@H](OC(=O)[C@H](O)[C@@H](NC(=O)c4ccccc4)c4ccccc4)C(C)=C1C3(C)C)[C@]1(OC(C)=O)CO[C@@H]1C[C@@H]2O [PACLITAXEL]		1.13 (≈ 1.32 µM)	0.065 (≈ 0.0761 µM)			0.048 (≈ 0.0562 µM)		0.86 (≈ 1.01 µM)
C=C1[C@H]2C[C@]3(C(C)(C)O)CC(=O)C(C)=C3[C@@H](OC(=O)c3ccccc3)[C@H](OC(C)=O)[C@]2(C)[C@@H](OC(C)=O)C[C@@H]1O	100 (≈ 180 µM)	100 (≈ 180 µM)	21 (≈ 37.9 µM)	0.008 (≈ 0.0144 µM)	0.0078 (≈ 0.0141 µM)	1.13 (≈ 2.04 µM)	5.33 (≈ 9.61 µM)	22.6 (≈ 40.7 µM)
C=C1[C@@H](O)C[C@H](OC(C)=O)[C@@]2(C)[C@@H](OC(C)=O)[C@H](OC(=O)c3ccccc3)C3=C(C)C(=O)C[C@@]3(C(C)(C)O)[C@@H](OC(C)=O)[C@H]12 [13-OXO-TAXCHININ A]	96.6 (≈ 158 µM)	100 (≈ 163 µM)	100 (≈ 163 µM)	100 (≈ 163 µM)	100 (≈ 163 µM)	100 (≈ 163 µM)	100 (≈ 163 µM)	100 (≈ 163 µM)
